By Ki is commonly meant the equilibrium dissociation constant of an inhibitor or competing ligand from its target.

This is an account of results in patent US12528812B2 (Genentech, Inc., priority 2020, dated 2026).

Assay [1] deals with Recombinant human JAK2 kinase domain protein (Residues 812-1132) (Homo sapiens, UniProt O60674). The assay is described as follows: JAK2 biochemical assay (LabChip mobility shift, Ki). The conditions noted are these: Biochem JAK2 Ki.
Procedure: The in vitro biochemical assays quantify JAK-catalyzed phosphorylation of a synthetic peptide, as detected using a LabChip® EZ Reader II microfluidic mobility shift instrument (PerkinElmer; Waltham, MA). […] Y-1B is fluorescently labeled on the N-terminus with 5-FAM (5-carboxyfluorescein) and contains a single tyrosine residue (Y) that can be phosphorylated by JAK activity. The substrate peptide stock is prepared in DMSO at 5 mM. […] In each titration experiment, test compound was tested in duplicate at each of the twelve concentrations. Blank reactions contained ATP, peptide, and DMSO, but no JAK or test compound, whereas uninhibited control reactions contained ATP, peptide, JAK, and DMSO, but no test compound.
Peptide plus ATP mixture (24 μL) was added to 1 μL of test compound in DMSO (or DMSO alone). The reactions were initiated by adding 25 μL of JAK enzyme to the inhibitor/peptide/ATP mixture before thoroughly mixing the resultant solution. Reactions were incubated at room temperature (22° C.-23° C.) in a final volume of 50 μL per well in 384-well plates. After a 30-minute incubation, the reactions were stopped by adding 25 μL of 150 mM ethylenediaminetetraacetic acid in 100 mM HEPES buffer (pH 7.2) containing 0.015% Brij 35 to each well.
In each reaction, the residual Y-1B substrate and the phospho-peptide product generated were separated using the EZ Reader II instrument. Electrophoretic separation of molecules of product from molecules of substrate was achieved using downstream and upstream voltages of −500 and −2600 V, respectively, at an operating pressure of −1.3 psi.
The extent (or percent) of conversion of substrate to product was calculated from the corresponding peak heights in the electropherogram using HTS Well Analyzer software, Version 5.2 (PerkinElmer), and the following equation (Equation 1): conversion=[P÷(S+P)]×100 Equation 1% where S and P represent the peak heights of the substrate and product, respectively. After any baseline signal from blank wells containing no JAK was subtracted from the signal of all test wells, the % conversion data were converted to fractional activity as shown in Equation 2, where vi and vo are the % conversion in the presence and absence of test compound, respectively.
For assay [2], the system named is IL-13-stimulated STAT6 phosphorylation in human lung bronchial epithelial BEAS-2B cell line. Nature of the assay: P-STAT6 BEAS-2B + IL-13 cell assay. In kind it is cell-based. The conditions noted are these: Homo sapiens, BEAS-2B, BEAS2B cells, IL13 stimulation; read-out: Cellular JAK1 PSTAT6 BEAS2B + IL13. The method, then:
In order to study the effect of JAK1 inhibitors in a cell line that is relevant to the cell biology of human asthma, an IL-13-stimulated STAT6 phosphorylation assay in the human lung bronchial epithelial BEAS-2B cell line was developed.
BEAS-2B cells (ATCC′ CRL-9609™) were grown in Bronchial Epithelial Growth Medium (BEGM) (Lonza Catalog No. CC-3170; Walkersville, MD; or PromoCell Catalog No. C-21060; Heidelberg, Germany). Test compound stock solutions (0.5 mM in DMSO) were serially diluted 1:2 in DMSO to generate a 10-point concentration curve (at 500× test concentration), which was further diluted by a 50-fold dilution step in BEGM to generate a 10× concentration curve (in 2% DMSO). Cells were plated at 100,000 cells/well in 200 μL of BEGM in 96-well plates and incubated for 48 hours at 37° C. in a humidified incubator. Medium was aspirated from the cells and replaced with 70 μL of fresh BEGM. Diluted test compound (10 μL; or 2% DMSO in assay medium) was added to the cells, and the plates were incubated for 1 hour at 37° C. in a humidified incubator. Twenty μL of 250 ng/mL human recombinant IL-13 (Bio Techne Catalog No. 213-ILB) was then added to the cells and incubated for 15 minutes at 37° C. Medium was aspirated from the cells and 60 μL of ice-cold 1× cell lysis buffer (Cell Signaling Technologies; Catalog No. 9803S) containing 1 mM PMSF was added to the cells. Assay plates were incubated at −80° C. for at least 1 hour. P-STAT6 was measured by coating GAR plates (MSD; Catalog No. L45RA-1) with rabbit anti-human total STAT6 antibody (Cell Signaling Technologies; Catalog No. 9362S), incubating the cell lysates in the coated plates overnight at 4° C., and then detecting with mouse anti-phospho-STAT6 (Tyr641) Clone 16E12 antibody (Millipore; Catalog No. 05-590, custom labeled by MSD with SULFO-tag) using standard MSD plate processing, washing, and detection protocols. Plates were read on the MESO SECTOR 5600.
Data analysis was performed by subtracting negative control values from all wells and determining percent of control using the positive control values; the IC50 was determined with a four-parameter logistic fit model as shown in Equation 4.

Assay [3] has as its target T1, recombinant human JAK1 kinase domain protein (Residues 854-1154) (Homo sapiens, UniProt P23458).
T1 construct: human JAK1 kinase domain protein (Residues 854-1154); purchased Proteros Biostructures GmbH (Martinsried, Germany); host or cells: insect cells
Nature of the assay: JAK1 biochemical assay (LabChip mobility shift, Ki). The conditions noted are these: read-out: Biochem JAK1 Ki.

T1 sequence (P23458 854-1154): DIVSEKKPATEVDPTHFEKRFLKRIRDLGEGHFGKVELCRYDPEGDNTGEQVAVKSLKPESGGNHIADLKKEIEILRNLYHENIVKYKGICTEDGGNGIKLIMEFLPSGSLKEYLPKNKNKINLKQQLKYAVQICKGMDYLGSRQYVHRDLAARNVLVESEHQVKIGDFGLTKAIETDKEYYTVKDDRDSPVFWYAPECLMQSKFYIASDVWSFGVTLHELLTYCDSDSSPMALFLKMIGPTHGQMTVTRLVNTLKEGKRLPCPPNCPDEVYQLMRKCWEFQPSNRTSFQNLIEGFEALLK
Sequence of Recombinant human JAK2 kinase domain protein (Residues 812-1132) (O60674 812-1132): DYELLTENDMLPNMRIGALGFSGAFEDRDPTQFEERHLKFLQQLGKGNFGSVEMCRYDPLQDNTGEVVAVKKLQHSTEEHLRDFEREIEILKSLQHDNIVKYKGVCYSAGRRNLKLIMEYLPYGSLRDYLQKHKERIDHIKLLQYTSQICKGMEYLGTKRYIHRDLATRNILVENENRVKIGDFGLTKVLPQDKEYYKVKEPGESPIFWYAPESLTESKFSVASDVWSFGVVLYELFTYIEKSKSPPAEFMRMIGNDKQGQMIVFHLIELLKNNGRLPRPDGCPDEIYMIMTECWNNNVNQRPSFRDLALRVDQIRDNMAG

Regarding `CN1CCCC1Cn1cc(NC(=O)c2cnn3cccnc23)c(-c2cc(Oc3cccc(C4CNCCO4)c3)ccc2OC(F)F)n1` (racemic) [Example 41, N-[3-[2-(difluoromethoxy)-5-(3-morpholin-2-ylphenoxy)phenyl]-1-[[rac-(2R)-1-methylpyrrolidin-2-yl]methyl]pyrazol-4-yl]pyrazolo[1,5-a]pyrimidine-3-carboxamide], the Ki was determined as 4.4 nM in assay [1] and 1.4 nM in assay [3]. Moreover, the IC50 in assay [2] was determined as 210 nM.

As to `Cn1cc(NC(=O)c2cnn3cccnc23)c(-c2cc(Oc3cccc([C@H]4CNCCO4)c3)ccc2OC(F)F)n1` (racemic) [Example 42, N-[3-[2-(difluoromethoxy)-5-[3-[rac-(2S)-morpholin-2-yl]phenoxy]phenyl]-1-methyl-pyrazol-4-yl]pyrazolo[1,5-a]pyrimidine-3-carboxamide], the inhibition constant Ki is 0.39 nM in assay [1] and 0.37 nM in assay [3]. In assay [2], the IC50 stood at 11 nM.

Consider `Cc1ccc(Oc2ccc(OC(F)F)c(-c3nn(CC4CCCN4C)cc3NC(=O)c3cnn4cccnc34)c2)cc1C(=O)N(C)C` (racemic) [Example 51, N-[3-[2-(difluoromethoxy)-5-[3-(dimethylcarbamoyl)-4-methyl-phenoxy]phenyl]-1-[[rac-(2R)-1-methylpyrrolidin-2-yl]methyl]pyrazol-4-yl]pyrazolo[1,5-a]pyrimidine-3-carboxamide], for which the Ki in assay [1] was determined as 1.8 nM; in assay [3], 1.3 nM. Also, the IC50 in assay [2] stood at 45 nM.

On to `Cc1ccc(Oc2ccc(OC(F)F)c(-c3nn(CCN[C@H]4CCOC4)cc3NC(=O)c3cnn4cccnc34)c2)cc1C(=O)N(C)C` (racemic) [Example 58, N-[3-[2-(difluoromethoxy)-5-[3-(dimethylcarbamoyl)-4-methyl-phenoxy]phenyl]-1-[2-[[rac-(3R)-tetrahydrofuran-3-yl]amino]ethyl]pyrazol-4-yl]pyrazolo[1,5-a]pyrimidine-3-carboxamide], for which the results for the Ki in assay [1] and in assay [3] were 0.7 nM and 1.2 nM, respectively. Also, the IC50 in assay [2] was 33 nM.

Consider `Cc1ccc(Oc2ccc(OC(F)F)c(-c3nn(CCN[C@H]4CCCOC4)cc3NC(=O)c3cnn4cccnc34)c2)cc1C(=O)N(C)C` (racemic) [Example 83, N-[3-[2-(difluoromethoxy)-5-[3-(dimethylcarbamoyl)-4-methyl-phenoxy]phenyl]-1-[2-[[rac-(3R)-tetrahydropyran-3-yl]amino]ethyl]pyrazol-4-yl]pyrazolo[1,5-a]pyrimidine-3-carboxamide], for which the Ki in assay [1] was 1 nM; in assay [3], 1.7 nM. Besides, the IC50 in assay [2] amounted to 150 nM.

For the compound `Cc1ccc(Oc2ccc(OC(F)F)c(-c3nn(C[C@@H]4C[C@@H](F)CN4C)cc3NC(=O)c3cnn4cccnc34)c2)cc1C(=O)N(C)C` (racemic) [Example 89, N-[3-[2-(difluoromethoxy)-5-[3-(dimethylcarbamoyl)-4-methyl-phenoxy]phenyl]-1-[[rac-(2R,4S)-4-fluoro-l-methyl-pyrrolidin-2-yl]methyl]pyrazol-4-yl]pyrazolo[1,5-a]pyrimidine-3-carboxamide], the Ki was 1.3 nM in assay [1] and 1.2 nM in assay [3]. In assay [2], the IC50 came out at 120 nM.

`Cn1cc(NC(=O)c2cnn3cccnc23)c(-c2cc(Oc3cccc(CN4CCOC[C@@H]4CO)c3)ccc2OC(F)F)n1` (racemic) [Example 93, N-[3-[2-(difluoromethoxy)-5-[3-[[rac-(3R)-3-(hydroxymethyl)morpholin-4-yl]methyl]phenoxy]phenyl]-1-methyl-pyrazol-4-yl]pyrazolo[1,5-a]pyrimidine-3-carboxamide]: the results for the Ki in assay [1] and in assay [3] were 0.65 nM and 1.2 nM, respectively. Further, the IC50 in assay [2] worked out at 89 nM.

Take `C[C@H](O)Cn1cc(Oc2ccc(OC(F)F)c(-c3nn(C)cc3NC(=O)c3cnn4cccnc34)c2)cn1` (racemic) [Example 120, N-[3-[2-(difluoromethoxy)-5-[1-[rac-(2R)-2-hydroxypropyl]pyrazol-4-yl]oxy-phenyl]-1-methyl-pyrazol-4-yl]pyrazolo[1,5-a]pyrimidine-3-carboxamide]: the Ki in assay [1] was found to be 0.24 nM; in assay [3] it was 0.35 nM. For the same compound, the IC50 in assay [2] is 19 nM.

For the compound `Cn1cc(NC(=O)c2cnn3cccnc23)c(-c2cc(Oc3cnn(C4CCNC4)c3)ccc2OC(F)F)n1` (racemic) [Example 139, N-[3-[2-(difluoromethoxy)-5-[1-[rac-(3R)-pyrrolidin-3-yl]pyrazol-4-yl]oxy-phenyl]-1-methyl-pyrazol-4-yl]pyrazolo[1,5-a]pyrimidine-3-carboxamide], the Ki in assay [1] worked out at 1.5 nM; in assay [3], 2 nM. In addition, in assay [2], the IC50 amounted to 70 nM.

`CN1CCC(n2cc(Oc3ccc(OC(F)F)c(-c4nn(C)cc4NC(=O)c4cnn5cccnc45)c3)cn2)C1` (racemic) [Example 140, N-[3-[2-(difluoromethoxy)-5-[1-[rac-(3S)-1-methylpyrrolidin-3-yl]pyrazol-4-yl]oxy-phenyl]-1-methyl-pyrazol-4-yl]pyrazolo[1,5-a]pyrimidine-3-carboxamide]: the Ki in assay [1] is 1.9 nM; in assay [3], 2.6 nM. For the same compound, in assay [2], the IC50 turned out to be 44 nM.

Consider `Cn1cc(NC(=O)c2cnn3cccnc23)c(-c2cc(Oc3cnn([C@H]4CCNC4)c3)ccc2OC(F)F)n1` (racemic) [Example 144, N-[3-[2-(difluoromethoxy)-5-[1-[rac-(3S)-pyrrolidin-3-yl]pyrazol-4-yl]oxy-phenyl]-1-methyl-pyrazol-4-yl]pyrazolo[1,5-a]pyrimidine-3-carboxamide], for which the Ki in assay [1] amounted to 3.7 nM; in assay [3], 3.9 nM. Besides, the IC50 in assay [2] turned out to be 160 nM.

For `Cn1cc(NC(=O)c2cnn3cccnc23)c(-c2cc(Oc3ccc(CN4CCC[C@H](CO)C4)cc3)ccc2OC(F)F)n1` (racemic) [Example 162, 3-[2-(difluoromethoxy)-5-[4-[[rac-(3S)-3-(hydroxymethyl)-1-piperidyl]methyl]phenoxy]phenyl]-1-methyl-pyrazol-4-yl]pyrazolo[1,5-a]pyrimidine-3-carboxamide], the Ki in assay [1] is 0.76 nM; in assay [3] it was 2.6 nM. Moreover, the IC50 in assay [2] turned out to be 32 nM.

On to `Cn1cc(NC(=O)c2cnn3cccnc23)c(-c2cc(Oc3ccc(CN4CCC[C@@H](O)C4)cc3)ccc2OC(F)F)n1` (racemic) [Example 163, N-[3-[2-(difluoromethoxy)-5-[4-[[rac-(3R)-3-hydroxy-1-piperidyl]methyl]phenoxy]phenyl]-1-methyl-pyrazol-4-yl]pyrazolo[1,5-a]pyrimidine-3-carboxamide], for which the Ki in assay [1] stood at 0.37 nM; in assay [3], 1.5 nM. Further, the IC50 in assay [2] was 21 nM.

As for `Cn1cc(NC(=O)c2cnn3cccnc23)c(-c2cc(Oc3ccc(CN4CCCC(O)C4)cc3)ccc2OC(F)F)n1` (racemic) [Example 164, N-[3-[2-(difluoromethoxy)-5-[4-[[rac-(3S)-3-hydroxy-1-piperidyl]methyl]phenoxy]phenyl]-1-methyl-pyrazol-4-yl]pyrazolo[1,5-a]pyrimidine-3-carboxamide], the Ki in assay [1] was 1.5 nM; in assay [3], 3.2 nM. The IC50 in assay [2] came out at 38 nM.

For the compound `Cn1cc(NC(=O)c2cnn3cccnc23)c(-c2cc(Oc3ccc(CN4CCCC4CO)cc3)ccc2OC(F)F)n1` (racemic) [Example 165, N-[3-[2-(difluoromethoxy)-5-[4-[[rac-(2S)-2-(hydroxymethyl)pyrrolidin-1-yl]methyl]phenoxy]phenyl]-1-methyl-pyrazol-4-yl]pyrazolo[1,5-a]pyrimidine-3-carboxamide], the Ki in assay [1] worked out at 0.56 nM; in assay [3] it was 1.7 nM. The IC50 in assay [2] was 31 nM.

With `Cn1cc(NC(=O)c2cnn3cccnc23)c(-c2cc(Oc3ccc(CN4CCCC[C@@H]4CO)cc3)ccc2OC(F)F)n1` (racemic) [Example 166, N-[3-[2-(difluoromethoxy)-5-[4-[[rac-(2R)-2-(hydroxymethyl)-1-piperidyl]methyl]phenoxy]phenyl]-1-methyl-pyrazol-4-yl]pyrazolo[1,5-a]pyrimidine-3-carboxamide], the results for the Ki in assay [1] and in assay [3] were 0.99 nM and 2.5 nM, respectively. Besides, in assay [2], the IC50 stood at 32 nM.
